Tests used:
Format in all cases: in vivo, human
[1] = test system: APOE4+ patients with Alzheimer's disease; assay: Phase 3 trials of tramiprosate, CDR-SB score, all APOE4+ patients; conditions: for CDR-SB Score Change over Standard of Care (Δ improvement vs control): All APOE4+ patients ≤85 years
Protocol: (§1) The delta value in all of these tables is calculated by measuring the increase in score over baseline for each patient in a treatment group and obtaining the mean increase for such group and then subtracting that value from the mean increase in score over baseline for all patients in the placebo group. Thus, a positive delta value in these tables represents an improvement over the placebo group. Phase 3 human clinical trials of tramiprosate to treat Alzheimer's disease at doses of 100 mg BID and 150 mg BID for up to 78 weeks were run in both North America and Europe (1691 total patients enrolled). Placebos in both trials were treatment with donepezil either alone or in combination with memantine. ADAS-Cog scores and CDR-SB scores were obtained every 13 weeks for patients that remained in the trial. The patients were genotyped for APOE4 and the severity of their disease was measured using MMSE prior to the beginning of treatment. The data from both trials were merged for certain statistical analyses. […] We then performed additional subgroup analysis, subgrouping by APOE4 genotype/allele status (APOE4 heterozygous or APOE4 homozygous) and by disease severity (mild vs moderate) to determine if the number of c alleles and/or the severity of disease predicted a better outcome of tramiprosate therapy. […] In Table 2, *control treatment is donepezil either alone or in combination with memantine. Positive delta values quantitate the amount by which average increase in CDR-SB Score points above baseline for the control group exceeded the average increase in CDR-SB Score points above baseline for the treatment group.

[2] = test system: APOE4 heterozygous patients with Alzheimer's disease; assay: Phase 3 trials of tramiprosate, ADAS-Cog score, heterozygous APOE4+ patients; conditions: Heterozygous APOE4+ patients ≤85 years
Protocol: as §1, with “Table 3,” for “Table 2,”, “in ADAS-Cog” for “in CDR-SB”

[3] = Safety in Phase 3 tramiprosate studies
Protocol: In some embodiments, the subject is determined to have moderate AD when the subject has a baseline MMSE score in the range of 16-19. In some embodiments, the subject is determined to have mild AD when the subject has a baseline MMSE score in the range of 20-26. […] Safety data from Phase 3 tramiprosate studies support bridging to the ALZ-801 safety database, based on bioequivalence. The disclosures in provisional application Ser. No. 62/216,404, filed Sep. 10, 2015, 62/290,287, filed Feb. 2, 2016, and 62/365,809, filed Jul. 22, 2016 are incorporated herein for all purposes and particularly regarding dosages and formulations.

[4] = Mild (MMSE 20-26), 100 mg BID, 52 weeks
[5] = Mild (MMSE 20-26), 100 mg BID, 65 weeks
[6] = Mild (MMSE 20-26), 100 mg BID, 78 weeks
[7] = Mild (MMSE 20-26), 150 mg BID, 52 weeks
[8] = Mild (MMSE 20-26), 150 mg BID, 65 weeks
[9] = Mild (MMSE 20-26), 150 mg BID, 78 weeks
[10] = Mild-to-Moderate (MMSE 16-26), 100 mg BID, 52 weeks
[11] = Mild-to-Moderate (MMSE 16-26), 100 mg BID, 65 weeks
[12] = Mild-to-Moderate (MMSE 16-26), 100 mg BID, 78 weeks
[13] = Mild-to-Moderate (MMSE 16-26), 150 mg BID, 52 weeks
[14] = Mild-to-Moderate (MMSE 16-26), 150 mg BID, 65 weeks
[15] = Mild-to-Moderate (MMSE 16-26), 150 mg BID, 78 weeks
[16] = Moderate (MMSE 16-19), 100 mg BID, 52 weeks
[17] = Moderate (MMSE 16-19), 100 mg BID, 65 weeks
[18] = Moderate (MMSE 16-19), 100 mg BID, 78 weeks
[19] = Moderate (MMSE 16-19), 150 mg BID, 52 weeks
[20] = Moderate (MMSE 16-19), 150 mg BID, 65 weeks
[21] = Moderate (MMSE 16-19), 150 mg BID, 78 weeks

SMILES: NCCCS(=O)(=O)O [Tramiprosate, 3-amino-1-propanesulfonic acid]
- Effect on CDR-SB compared with the placebo ([1]; APOE4+ subgroup, both 100 mg and 150 mg treatment groups): statistically significant effect
- CDR-SB Score Change over Standard of Care (Δ improvement vs control) [1, 4]: 0.14 points
- CDR-SB Score Change over Standard of Care (Δ improvement vs control) [1, 5]: 0.34 points
- CDR-SB Score Change over Standard of Care (Δ improvement vs control) [1, 6]: 0.35 points
- CDR-SB Score Change over Standard of Care (Δ improvement vs control) [1, 7]: 0.16 points
- CDR-SB Score Change over Standard of Care (Δ improvement vs control) [1, 8]: 0.2 points
- CDR-SB Score Change over Standard of Care (Δ improvement vs control) [1, 9]: 0.18 points
- CDR-SB Score Change over Standard of Care (Δ improvement vs control) [1, 10]: 0.26 points
- CDR-SB Score Change over Standard of Care (Δ improvement vs control) [1, 11]: 0.5 points
- CDR-SB Score Change over Standard of Care (Δ improvement vs control) [1, 12]: 0.55 points
- CDR-SB Score Change over Standard of Care (Δ improvement vs control) [1, 13]: 0.44 points
- CDR-SB Score Change over Standard of Care (Δ improvement vs control) [1, 14]: 0.5 points
- CDR-SB Score Change over Standard of Care (Δ improvement vs control) [1, 15]: 0.6 points
- CDR-SB Score Change over Standard of Care (Δ improvement vs control) [1, 16]: 0.56 points
- CDR-SB Score Change over Standard of Care (Δ improvement vs control) [1, 17]: 0.83 points
- CDR-SB Score Change over Standard of Care (Δ improvement vs control) [1, 18]: 0.98 points
- CDR-SB Score Change over Standard of Care (Δ improvement vs control) [1, 19]: 1.00 points
- CDR-SB Score Change over Standard of Care (Δ improvement vs control) [1, 20]: 1.12 points
- CDR-SB Score Change over Standard of Care (Δ improvement vs control) [1, 21]: 1.53 points
- ADAS-Cog Score Change over Standard of Care (Δ improvement vs control) [2, 4]: 0.9 points
- ADAS-Cog Score Change over Standard of Care (Δ improvement vs control) [2, 5]: −0.3 points
- ADAS-Cog Score Change over Standard of Care (Δ improvement vs control) [2, 6]: 0.8 points
- ADAS-Cog Score Change over Standard of Care (Δ improvement vs control) [2, 7]: 0.1 points
- ADAS-Cog Score Change over Standard of Care (Δ improvement vs control) [2, 8]: −0.6 points
- ADAS-Cog Score Change over Standard of Care (Δ improvement vs control) [2, 9]: −0.5 points
- ADAS-Cog Score Change over Standard of Care (Δ improvement vs control) [2, 10]: 2.0 points
- ADAS-Cog Score Change over Standard of Care (Δ improvement vs control) [2, 11]: 0.8 points
- ADAS-Cog Score Change over Standard of Care (Δ improvement vs control) [2, 12]: 1.1 points
- ADAS-Cog Score Change over Standard of Care (Δ improvement vs control) [2, 13]: 0.5 points
- ADAS-Cog Score Change over Standard of Care (Δ improvement vs control) [2, 14]: 0.0 points
- ADAS-Cog Score Change over Standard of Care (Δ improvement vs control) [2, 15]: −0.4 points
- ADAS-Cog Score Change over Standard of Care (Δ improvement vs control) [2, 16]: 4.4 points
- ADAS-Cog Score Change over Standard of Care (Δ improvement vs control) [2, 17]: 3.4 points
- ADAS-Cog Score Change over Standard of Care (Δ improvement vs control) [2, 18]: 2 points
- ADAS-Cog Score Change over Standard of Care (Δ improvement vs control) [2, 19]: 1.5 points
- ADAS-Cog Score Change over Standard of Care (Δ improvement vs control) [2, 20]: 1.4 points
- ADAS-Cog Score Change over Standard of Care (Δ improvement vs control) [2, 21]: 0 points
- Most common adverse event [3]: nausea
- Safety profile [3]: favorable safety profile
